The values that follow come from US9194864B2, “Screening methods employing insects with blood brain barrier” (Entomopharm ApS, priority 2008, dated 2015).

Where two headings read alike, the source gives them in different places.

For data set [1] the following is noted: cited from earlier work.
Another data set is described as follows: in vivo. The conditions noted are these: male, Locusta migratoria (grasshopper/locust).
Data set [2] can be described thus: Hemolymph concentration after injection into grasshoppers, measured by LCMS. The conditions noted are these: male, Locusta migratoria (grasshopper/locust), in vivo.
Experimental: 40 μl of a 8.8 mg/ml solution of mianserin in 5% DMSO was injected into 18 grasshoppers, Locusta migratoria (males). After 5 minutes 20 μl of hemolymph was extracted from each locust. A cut was made through the frontal part of the locust head comprising the most frontal parts including the antennae, the compound eyes, the brain and all neural connections between the brain and the antennae and the eyes. The brain was then dissected in saline containing Evans Blue.
2 hemolymph samples were placed in a test tube containing 60 μl of distilled H2O and 200 μl acetonitrile. Each sample was centrifuged for 5 minutes (10000 g at 4° C.).
40 μl of a 8.8 mg/ml solution of mianserin in 5% DMSO was injected into 18 grasshoppers, Locusta migratoria (males). After 15 minutes 20 μl of hemolymph was extracted from each locust. A cut was made through the frontal part of the locust head comprising the most frontal parts including the antennae, the compound eyes, the brain and all neural connections between the brain and the antennae and the eyes. The brain was dissected in saline containing Evans Blue.
40 μl of a 8.8 mg/ml solution of mianserin in 5% DMSO was injected into 18 grasshoppers, Locusta migratoria (males). After 45 minutes 20 μl of hemolymph was extracted from each locust. […]

As for `NCCc1c[nH]c2ccc(O)cc12` [serotonin], the “penetration of the grasshopper blood brain barrier (BBB), conclusion in words” value (Locusta migratoria, injection) is recorded as “only penetrates the grasshopper BBB to a very low extend, if any at all”. Besides, under “no injection, washed in saline, 3 brains in one tube”, the “endogenous level in the brain (concentration in brain supernatant)” value is 20 ng/mL. The “BBB penetration in vertebrates, in words” value in data set [1] is “very low BBB penetration”. For the same compound, the concentration at 5 min in the data set “in vivo” (12.6 µg per insect, average concentration in brain supernatant, 20 μl of 630 μg/ml injected, 5 minutes, washed in saline, neural lamella included, 3 brains per tube) was found to be 86.5 ng/mL; in data set [2] (12.6 µg per insect), 4700 ng/mL.
In the case of `O=C1CC2(CCCC2)CC(=O)N1CCCCN1CCN(c2ncccn2)CC1` [buspirone], the concentration at 5 min is under 20 ng/mL in “in vivo” (168 µg per insect) and 4500 ng/mL in data set [2] (168 µg per insect).
Take `CN1CCN2c3ccccc3Cc3ccccc3C2C1` (stereo not drawn) [mianserin]: where the note is “in vivo”, the “penetration of the grasshopper blood brain barrier (BBB), conclusion in words” value is reported as “penetrates the blood brain barrier (BBB) in grasshoppers”. Also, the “factor by which measured brain concentration is increased when the neural lamella is included” value (male, Locusta migratoria (grasshopper/locust), in vivo, 5 min) was 3.
